Measured values from patent US10028992B2, “Methods of treating muscular dystrophy” (BOARD OF REGENTS OF THE NEVADA SYSTEM OF HIGHER EDUCATION …, priority 2012, dated 2018).
Like-named read-outs stand apart in the source and are kept apart here.

System: α7 integrin promoter
Assay: muscle cell-based assay: α7βgal+/− myoblasts/myotubes, LacZ reporter, β-galactosidase cleavage of FDG
Design: species or system mouse; Results in α7+/− β-galactosidase assay: scale not given here
Conditions: for Results in α7+/− β-galactosidase assay: Myoblasts; for AC50 / Emax: Mus musculus; for AC50 / Fit HillSlope / Fit Zero Activity [%] / Fit Curve Class: Table 12; for AC50: log of AC50, given with negative sign, unit of AC50 not given, read-out: Fit Log AC50 (converted); for Fit HillSlope: curve fit; for Fit Zero Activity [%]: fitted activity at zero concentration; for Fit Curve Class: key not given; for Score: Table 12 Compound data, concentration-response curve fit; for Emax: read-out: Max Response [%]
Outline: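 Primary α7βgal+/− mouse myoblasts (LacZ knocked into α7 integrin exon 1, promoter retained), differentiated; promoter activity read as β-galactosidase conversion of non-fluorescent FDG to fluorescein. Hits followed by dose-response, western analysis and myostatin counterscreen.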

CC(O)CNc1nc2c(c(=O)n(Cc3ccc(Br)cc3)c(=O)n2C)n1C (stereo not drawn) [drawing 372]
Results in a α7+/− β-galactosidase assay, Myotubes, 0.5 uM (Myotubes, compound at 0.5 uM): 0.1594 | Results in a α7+/− β-galactosidase assay, Myotubes, 1 uM (Myotubes, compound at 1 uM): 0.164 | Results in a α7+/− β-galactosidase assay, Myotubes, 5 uM (Myotubes, compound at 5 uM): −0.05597 | Results in a α7+/− β-galactosidase assay, Myotubes, 10 uM (Myotubes, compound at 10 uM): −0.08357 | Results in a α7+/− β-galactosidase assay, Myotubes, 20 uM (Myotubes, compound at 20 uM): −0.2604 | Results in a α7+/− β-galactosidase assay, Myotubes, 40 uM (Myotubes, compound at 40 uM): −0.369

N#C/C(=C/c1ccc(N2CCOCC2)o1)C(=O)Nc1ccccc1 [drawing 645]
Results in α7+/− β-galactosidase assay (0.5 uM): 0.06835 | Results in α7+/− β-galactosidase assay (1 uM): 0.1707 | Results in α7+/− β-galactosidase assay (5 uM): 0.1316 | Results in α7+/− β-galactosidase assay (10 uM): 0.05082 | Results in α7+/− β-galactosidase assay (20 uM): 0.07006 | Results in α7+/− β-galactosidase assay (40 uM): 0.03748

Cc1ccc2c(c1)/C(=C/c1ccco1)C(=O)N2 [drawing 696]
Results in α7+/− β-galactosidase assay (0.5 uM): 0.2035 | Results in α7+/− β-galactosidase assay (1 uM): 0.02005 | Results in α7+/− β-galactosidase assay (5 uM): 0.2293 | Results in α7+/− β-galactosidase assay (10 uM): 0.07554 | Results in α7+/− β-galactosidase assay (20 uM): 0.1241 | Results in α7+/− β-galactosidase assay (40 uM): 0.1026

O=C(Cn1nc(-c2ccc(Cl)cc2)ccc1=O)N1CCC2(CC1)OCCO2 [drawing 395]
Results in a α7+/− β-galactosidase assay, Myotubes, 0.5 uM: 0.1803 | Results in a α7+/− β-galactosidase assay, Myotubes, 1 uM: 0.1627 | Results in a α7+/− β-galactosidase assay, Myotubes, 5 uM: −0.1502 | Results in a α7+/− β-galactosidase assay, Myotubes, 10 uM: −0.1782 | Results in a α7+/− β-galactosidase assay, Myotubes, 20 uM: −0.08792 | Results in a α7+/− β-galactosidase assay, Myotubes, 40 uM: −0.2213

CN1C(=O)N(CC(=O)N2CCN(S(=O)(=O)c3ccc(Cl)s3)CC2)C(=O)C12CCCCC2 [drawing 701]
Results in α7+/− β-galactosidase assay (0.5 uM): 0.1065 | Results in α7+/− β-galactosidase assay (1 uM): 0.03367 | Results in α7+/− β-galactosidase assay (5 uM): 0.1338 | Results in α7+/− β-galactosidase assay (10 uM): 0.2611 | Results in α7+/− β-galactosidase assay (20 uM): −0.306 | Results in α7+/− β-galactosidase assay (40 uM): −0.5075

O=C(COC(=O)Cn1cnc2ccccc21)Nc1cccc([N+](=O)[O-])c1 [Compound 119]
AC50: 11.2 µM | Fit HillSlope: 4.9549 | Fit Zero Activity [%]: −16.0213% | Fit Curve Class: 2.1 | Score: 43

O=[N+]([O-])c1ccc(N2CCN(c3ccccc3F)CC2)nc1 [Compound 49]
AC50: 5.62 µM | Emax: 151% | Fit HillSlope: 1.9282 | Fit Zero Activity [%]: 2.973% | Fit Curve Class: 2.1 | Score: 46

COc1ccc(N2CCCC2)c(NC(=O)c2ccc([N+](=O)[O-])o2)c1 [Compound 46]
AC50: 7.94 µM | Emax: 156% | Fit HillSlope: 1.01 | Fit Zero Activity [%]: −35.6022% | Fit Curve Class: 2.1 | Score: 46

CC(O)CNc1nc2c(c(=O)n(Cc3ccc(Br)cc3)c(=O)n2C)n1C (stereo not drawn) [drawing 580]
Results in α7+/− β-galactosidase assay (0.5 uM): 0.04963 | Results in α7+/− β-galactosidase assay (1 uM): 0.02595 | Results in α7+/− β-galactosidase assay (5 uM): −0.05885 | Results in α7+/− β-galactosidase assay (10 uM): −0.1174 | Results in α7+/− β-galactosidase assay (20 uM): −0.1471 | Results in α7+/− β-galactosidase assay (40 uM): −0.218

COc1ccc(C(=O)N/C(=C/c2cccnc2)C(=O)N2CCN(C)CC2)cc1OC [Compound 92]
AC50: 4.47 µM | Fit HillSlope: 1.6259 | Fit Zero Activity [%]: 1.7602% | Fit Curve Class: 2.2 | Score: 43

CSc1ccc(S(=O)(=O)NCc2ccccc2)cc1 [drawing 382]
Results in a α7+/− β-galactosidase assay, Myotubes, 0.5 uM (Myotubes, compound at 0.5 uM): −0.1565 | Results in a α7+/− β-galactosidase assay, Myotubes, 1 uM (Myotubes, compound at 1 uM): −0.2515 | Results in a α7+/− β-galactosidase assay, Myotubes, 5 uM (Myotubes, compound at 5 uM): 0.02007 | Results in a α7+/− β-galactosidase assay, Myotubes, 10 uM (Myotubes, compound at 10 uM): 0.1738 | Results in a α7+/− β-galactosidase assay, Myotubes, 20 uM (Myotubes, compound at 20 uM): −0.1735 | Results in a α7+/− β-galactosidase assay, Myotubes, 40 uM (Myotubes, compound at 40 uM): −0.07044

O=C1SC(Cc2ccccc2)C(=O)N1c1ccccc1 (stereo not drawn) [Compound 50]
AC50: 7.94 µM | Emax: 176% | Fit HillSlope: 1.8851 | Fit Zero Activity [%]: 5.0579% | Fit Curve Class: 2.1 | Score: 46

NS(=O)(=O)c1ccc(NC(=O)CN2CCc3ccccc32)cc1 [drawing 446]
Results in a α7+/− β-galactosidase assay, Myotubes, 0.5 uM (Myotubes, compound at 0.5 uM): −0.03601 | Results in a α7+/− β-galactosidase assay, Myotubes, 1 uM (Myotubes, compound at 1 uM): −0.07498 | Results in a α7+/− β-galactosidase assay, Myotubes, 5 uM (Myotubes, compound at 5 uM): 0.1476 | Results in a α7+/− β-galactosidase assay, Myotubes, 10 uM (Myotubes, compound at 10 uM): −0.1666 | Results in a α7+/− β-galactosidase assay, Myotubes, 20 uM (Myotubes, compound at 20 uM): −0.05843 | Results in a α7+/− β-galactosidase assay, Myotubes, 40 uM (Myotubes, compound at 40 uM): −0.06764

COCCSc1ccccc1C(=O)Nc1cc(C)cc(C)c1 [Compound 22]
Activity at 0.307 μM [%] ** (0.307 μM): 0% | Activity at 1.530 μM [%] ** (1.530 μM): 0% | AC50: 4.47 µM | Emax: 82.9% | Fit HillSlope: 4.9549 | Fit Zero Activity [%]: −0.2899% | Fit Curve Class: 1.1 | Score: 84
